Experimental data reported in patent US20240270821A1, “GIP/GLP1/GCG TRI-RECEPTOR AGONISTS AND USES THEREOF” (priority 2023, published 2024).
Like-named read-outs stand apart in the source and are kept apart here. Marks after values point to notes of the source that are not given here. Starred links: 1 amine or outer side, 2 acyl side, 3 side chain; linkers in the order of their positions; H or OH if unused. Non-standard residues stand in square brackets, D forms with d. Groups on a side chain read outwards from the residue. *: point of attachment. C20 diacid = O=C(O)CCCCCCCCCCCCCCCCCCC(=O)*; C18 diacid = O=C(O)CCCCCCCCCCCCCCCCC(=O)*; αMePhe(2-F) = C[C@](N)(Cc1ccccc1F)C(=O)O; γGlu = O=C(O)[C@H](CCC(=O)[*:2])N[*:1]; αMeY = C[C@](N)(Cc1ccc(O)cc1)C(=O)O; 4Pal = N[C@@H](Cc1ccncc1)C(=O)O; αMeL = CC(C)C[C@](C)(N)C(=O)O; αMeS = C[C@](N)(CO)C(=O)O; Orn = NCCC[C@H](N)C(=O)O; AEEA = NCCOCCOCC(=O)O; Aib = CC(C)(N)C(=O)O

Key:
hGIPR [1] = target: T1, hGIPR (Homo sapiens, UniProt P48546); assay: Functional cAMP activity in the presence of 1% HSA; format: cell-based
T1 sequence (P48546 22-466): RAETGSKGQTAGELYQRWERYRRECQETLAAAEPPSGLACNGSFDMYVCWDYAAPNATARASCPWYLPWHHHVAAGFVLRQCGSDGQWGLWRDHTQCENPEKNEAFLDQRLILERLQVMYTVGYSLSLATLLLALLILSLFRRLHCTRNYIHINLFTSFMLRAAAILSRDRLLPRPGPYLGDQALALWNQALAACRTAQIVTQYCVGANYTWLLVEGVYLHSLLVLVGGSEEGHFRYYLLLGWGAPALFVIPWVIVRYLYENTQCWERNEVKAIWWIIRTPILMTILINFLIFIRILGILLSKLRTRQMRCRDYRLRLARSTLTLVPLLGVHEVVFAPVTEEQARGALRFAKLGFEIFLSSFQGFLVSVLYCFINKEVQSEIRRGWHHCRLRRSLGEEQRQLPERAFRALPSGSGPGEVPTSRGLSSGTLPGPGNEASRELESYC

[2] = Body weight in diet-induced obese C57BL/6 mice; format: in vivo; conditions: percent of starting weight, DIO mice, mean ± SEM n=5
Experimental: To investigate the effect of the polypeptides as described herein on weight loss, exemplary polypeptides are dosed to C57BL/6 diet-induced obese (DIO) mice. Specifically, DIO male C57BL/6 mice (Taconic, Germantown, NY) maintained on a calorie-rich diet are used in the following studies. Mice are individually housed in a temperature-controlled (24° C.) facility with 12-hour light/dark cycle (lights on 22:00) and free access to food (TD95217) and water. After a minimum of 2 weeks acclimation to the facility, the mice are randomized according to their body weight, so each experimental group of animals would have similar starting body weight. The body weights range from 41 to 50 g. All groups contain 5 mice. […] Treatments are administered by subcutaneous (SC) injection (10 mL/kg) to ad libitum fed DIO mice 30 to 90 minutes prior to the onset of the dark cycle either once daily (QD) or once every 3 days (Q3D) for 9-16 days. Body weight and food intake are measured daily throughout the study. Body weight is presented as percent of the starting weight. […] Data are presented as mean±SEM of 5 animals per group in Table 7 below. Statistical analysis is performed using repeated measures ANOVA, followed by Dunnett's method comparison test.

hGIPR [3] = target: T1, hGIPR; assay: Functional cAMP activation in the presence of 0.1% casein (no HSA); format: cell-based;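 on Relative cAMP EC50, hGIPR: intracellular cAMP rise after 30 min at 37 °C read by HTRF against a standard curve, scaled between buffer alone (0%) and top control ligand concentration (100%), four-parameter fit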;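 on Relative cAMP EC50, hGLP-1R: intracellular cAMP rise after 30 min at 37 °C read by HTRF, normalized between buffer only (0%) and maximal control ligand (100%), four-parameter variable-slope fit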
human GLP1-R = human GLP1-R (Homo sapiens, UniProt P43220); assay: GLP1-R internalization assay in HEK293 cells; format: cell-based; conditions: for Internalization % TOP: normalized to maximum concentration of GLP-1 (100%)
human GcgR = human GcgR (Homo sapiens, UniProt P47871); assay: Functional cAMP activity in the presence of 1% HSA; format: cell-based
hGcgR = hGcgR (Homo sapiens, UniProt P47871); assay: Functional cAMP activation in the presence of 0.1% casein (no HSA); format: cell-based;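 further: intracellular cAMP rise after 30 min at 37 °C, read by HTRF against a cAMP standard curve, scaled from buffer only (0%) to maximal control ligand response (100%)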
hGLP-1R [4] = target: T2, hGLP-1R (Homo sapiens, UniProt P43220); assay: Functional cAMP activity in the presence of 1% HSA; format: cell-based
hGLP-1R [5] = target: T2, hGLP-1R; assay: Functional cAMP activation in the presence of 0.1% casein (no HSA); format: cell-based;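 on Relative cAMP EC50, hGIPR: intracellular cAMP rise after 30 min at 37 °C read by HTRF against a standard curve, scaled between buffer alone (0%) and top control ligand concentration (100%), four-parameter fit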;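 on Relative cAMP EC50, hGLP-1R: intracellular cAMP rise after 30 min at 37 °C read by HTRF, normalized between buffer only (0%) and maximal control ligand (100%), four-parameter variable-slope fit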
Experimental: After a 30-minute incubation at 37° C., the resulting increase in intracellular cAMP is quantitatively determined using the CisBio CAMP Dynamic 2 HTRF Assay Kit (62AM4PEJ). Briefly, cAMP levels within the cell are detected by adding the cAMP-d2 conjugate in cell lysis buffer followed by the antibody anti-cAMP-Eu^3+-Cryptate, also in cell lysis buffer.
Intracellular cAMP levels are determined by extrapolation using a standard curve. Dose response curves of compounds are plotted as the percentage of stimulation normalized to minimum (buffer only) and maximum (maximum concentration of each control ligand) values and analyzed using a four parameter non-linear regression fit with a variable slope (Genedata Screener 13). EC50 is the concentration of compound causing half-maximal simulation in a dose response curve. Each relative EC50 value for the Geometric mean calculation is determined from a curve fitting.

[6] = in the presence of 0.1% casein (no HSA), geometric mean, read-out: Relative cAMP EC50, hGIPR
[7] = HEK293 cells expressing SNAP-GLP-1R, read-out: GLP1R Internalization EC50
[8] = in the presence of 0.1% casein (no HSA), geometric mean, read-out: Relative cAMP EC50, hGcgR
[9] = read-out: cAMP Rel EC50, hGLP-1R
[10] = in the presence of 0.1% casein (no HSA), geometric mean, read-out: Relative cAMP EC50, hGLP-1R
[11] = read-out: Relative cAMP EC50, hGIPR
[12] = read-out: Relative cAMP EC50, hGcgR
[13] = read-out: Relative cAMP EC50, hGLP-1R

T2 sequence (P43220 24-463): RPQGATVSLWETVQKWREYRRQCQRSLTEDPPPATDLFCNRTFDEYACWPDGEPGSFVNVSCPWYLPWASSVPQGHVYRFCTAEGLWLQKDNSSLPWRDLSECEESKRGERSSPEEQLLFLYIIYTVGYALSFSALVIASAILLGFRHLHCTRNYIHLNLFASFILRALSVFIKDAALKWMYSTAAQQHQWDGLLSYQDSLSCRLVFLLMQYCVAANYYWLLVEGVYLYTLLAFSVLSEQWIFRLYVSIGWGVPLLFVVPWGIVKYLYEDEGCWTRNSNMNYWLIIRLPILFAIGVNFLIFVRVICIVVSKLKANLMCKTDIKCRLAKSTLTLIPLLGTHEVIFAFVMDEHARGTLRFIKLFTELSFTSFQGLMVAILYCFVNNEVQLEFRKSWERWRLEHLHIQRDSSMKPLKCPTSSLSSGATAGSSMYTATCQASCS
human GLP1-R, sequence (P43220 24-463): as above
hGcgR, sequence (P47871 26-477): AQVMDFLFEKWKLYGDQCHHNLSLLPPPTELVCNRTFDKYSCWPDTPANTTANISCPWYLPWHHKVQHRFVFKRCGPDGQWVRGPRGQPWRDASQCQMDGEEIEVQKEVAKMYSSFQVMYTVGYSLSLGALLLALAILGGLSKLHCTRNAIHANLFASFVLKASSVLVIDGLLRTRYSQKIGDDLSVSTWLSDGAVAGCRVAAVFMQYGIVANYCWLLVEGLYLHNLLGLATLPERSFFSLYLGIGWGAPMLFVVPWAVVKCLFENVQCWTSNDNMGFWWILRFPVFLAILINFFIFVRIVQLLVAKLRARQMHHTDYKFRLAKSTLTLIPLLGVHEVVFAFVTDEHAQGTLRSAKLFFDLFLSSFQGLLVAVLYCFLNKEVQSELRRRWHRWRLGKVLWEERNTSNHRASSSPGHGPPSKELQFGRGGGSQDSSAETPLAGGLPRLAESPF
human GcgR, sequence (P47871 26-477): as above

Compound	EC50 (hGIPR [1]; read-out: cAMP Rel EC50, hGIPR) [nM]	Body weight (%) ([2]; 10 nmol/kg SC Q3D, 14 days)	EC50 (hGIPR [3]; [6]) [nM]	EC50 (human GLP1-R; [7]) [nM]	Internalization % TOP (human GLP1-R) [%]	EC50 (human GcgR; read-out: cAMP Rel EC50, hGcgR) [nM]	EC50 (hGcgR; [8]) [nM]	EC50 (hGLP-1R [4]; [9]) [nM]	EC50 (hGLP-1R [5]; [10]) [nM]	other results
CC[C@H](C)[C@H](NC(=O)[C@H](Cc1ccccc1)NC(=O)[C@H](C)NC(=O)C(C)(C)NC(=O)[C@H](CCC(N)=O)NC(=O)[C@H](C)NC(=O)[C@H](CCCCNC(=O)COCCOCCNC(=O)CC[C@H](NC(=O)CCCCCCCCCCCCCCCCCCC(=O)O)C(=O)O)NC(=O)[C@H](CCCCN)NC(=O)[C@H](CC(=O)O)NC(=O)[C@H](CC(C)C)NC(=O)[C@](C)(CC(C)C)NC(=O)[C@H](CCCN)NC(=O)[C@H](CO)NC(=O)[C@H](Cc1ccccc1)NC(=O)[C@H](CC(=O)O)NC(=O)[C@H](CO)NC(=O)[C@@H](NC(=O)[C@H](Cc1ccccc1)NC(=O)[C@@H](NC(=O)CNC(=O)[C@H](CCC(N)=O)NC(=O)C(C)(C)NC(=O)[C@@H](N)Cc1ccc(O)cc1)[C@@H](C)O)[C@@H](C)O)C(=O)N[C@@H](CCC(=O)O)C(=O)N[C@@H](Cc1ccc(O)cc1)C(=O)N[C@@H](CC(C)C)C(=O)N[C@@H](CC(C)C)C(=O)N[C@@H](C)C(=O)NCC(=O)NCC(=O)N1CCC[C@H]1C(=O)N[C@@H](CO)C(=O)N[C@@H](CO)C(=O)NCC(=O)N[C@@H](CCC(=O)O)C(=O)N1CCC[C@H]1C(=O)N1CCC[C@H]1C(=O)N1CCC[C@H]1C(=O)N[C@@H](CO)C(=O)N[C@@H](CCC(=O)O)C(=O)NCC(N)=O [Example 29]	70.1	75.96 +/− 3.77**** %	0.35	129	57	1350	11.1	493	3.56	–
CC[C@H](C)[C@H](NC(=O)[C@H](CC(C)C)NC(=O)[C@](C)(Cc1ccc(O)cc1)NC(=O)[C@@H](CCC(=O)O)NC(=O)[C@@H](NC(=O)[C@H](Cc1ccccc1)NC(=O)[C@H](CC(N)=O)NC(=O)C(C)(C)NC(=O)[C@H](CCC(N)=O)NC(=O)[C@H](C)NC(=O)[C@H](CCCCNC(=O)CC[C@H](NC(=O)CC[C@H](NC(=O)CCCCCCCCCCCCCCCCC(=O)O)C(=O)O)C(=O)O)NC(=O)[C@H](CCCN)NC(=O)[C@H](CC(=O)O)NC(=O)[C@H](CC(C)C)NC(=O)[C@](C)(CC(C)C)NC(=O)[C@@H](NC(=O)[C@](C)(CO)NC(=O)[C@H](Cc1ccncc1)NC(=O)[C@H](CC(=O)O)NC(=O)[C@H](CO)NC(=O)[C@@H](NC(=O)[C@](C)(Cc1ccccc1F)NC(=O)[C@@H](NC(=O)CNC(=O)[C@H](CCC(N)=O)NC(=O)C(C)(C)NC(=O)[C@@H](N)Cc1ccc(O)cc1)[C@@H](C)O)[C@@H](C)O)[C@@H](C)CC)[C@@H](C)CC)C(=O)N[C@@H](CCC(=O)O)C(=O)NCC(=O)NCC(=O)N1CCC[C@H]1C(=O)N[C@@H](CO)C(=O)N[C@@H](CO)C(=O)NCC(=O)N[C@@H](CCC(=O)O)C(=O)N1CCC[C@H]1C(=O)N[C@@H](CCC(=O)O)C(=O)N1CCC[C@H]1C(=O)N[C@@H](CCC(=O)O)C(N)=O [Example 452]	0.846	–	–	–	–	240	–	–	–	Body weight (%) ([2]; 10 nmol/kg SC QD, 15 days): 74.13 ± 4.11 %; EC50 (hGIPR [3]; [11]): 0.0118 nM; EC50 (hGcgR; [12]): 2.44 nM; EC50 (hGLP-1R [5]; [13]): 0.235 nM
H-Y[Aib]QGTFTSDFSK[αMeL]LDKK([AEEA-γGlu-C18 diacid])AQ[Aib]AFIEYLLAGGPSSGEPPPSGE-NH2 [Example 23]	25.5	80.86 +/− 1.25**** %	0.178	51.5	67.2	573	5.13	308	2.98	–
H-Y[Aib]QGTFTSDFSK[αMeL]LDKK([AEEA-γGlu-C20 diacid])AQQAFIEYLLA[Aib]GPSSGAPPPSEG-NH2 [Example 30]	–	90.12 +/− 0.30** %	–	–	72.8	–	–	–	–	EC50 (hGIPR [1]): 72.9 nM; EC50 (hGIPR [3]): 0.247 nM; EC50 (human GLP1-R): 70.4 nM; EC50 (human GcgR): 969 nM; EC50 (hGcgR): 5.22 nM; EC50 (hGLP-1R [4]): 806 nM; EC50 (hGLP-1R [5]): 3.18 nM
H-Y[Aib]QGTFTSDFSK[αMeL]LDKK([AEEA-γGlu-C20 diacid])AQ[Aib]AFIEWLLAGGPSSGEPPPSGE-NH2 [Example 21]	29.1	83.70 +/− 0.86**** %	0.218	87.6	72.5	1510	12.4	324	2.7	–
H-Y[Aib]QGTFTSDFSK[αMeL]LDKK([AEEA-γGlu-C20 diacid])AQ[Aib]AFIEYLLAGAPSSGEPPPSEG-NH2 [Example 24]	–	86.10 +/− 1.98**** %	–	–	–	–	–	–	–	–
H-Y[Aib]QGTFTSDFS[Orn][αMeL]LDKK([AEEA-AEEA-γGlu-C18 diacid])AQ[Aib]AFIEYLLE[Aib]GPSSGAPPPSGS-NH2 [Example 75]	16.8	96.28 +/− 1.51%	0.0578	61.8	51.9	1040	4.51	878	4.4	–
H-Y[Aib]QGTFTSDFS[Orn][αMeL]LDKK([AEEA-γGlu-C18 diacid])AQ[Aib]AFIEWLLEGGESSGAPPPEGS-NH2 [Example 125]	67.8	97.90 +/− 0.32%	0.503	86.4	42.6	901	3.97	1050	4.12	–
H-Y[Aib]QGTFTSDFS[Orn][αMeL]LDKK([AEEA-γGlu-C18 diacid])AQ[Aib]AFIEWLLEGGHSSGAPPPEGS-NH2 [Example 126]	40.3	95.68 +/− 0.90%	0.264	63.2	38.8	1120	6.81	838	3.97	–
H-Y[Aib]QGTFTSDFS[Orn][αMeL]LDKK([AEEA-γGlu-C18 diacid])AQ[Aib]AFIEYLLAGGPSSGAPPPEGS-NH2 [Example 93]	27.9	86.64 +/− 1.94**** %	0.162	30.4	50.8	1390	7.16	397	2.63	–
H-Y[Aib]QGTFTSDYSI[αMeL]LDKQAAK([AEEA-AEEA-γGlu-C20 diacid])QFVEWLIA[Aib]GPSSGEPPPAEG-NH2 [Example 334]	72.1	84.78 +/− 2.74**** %	0.223	28.3	96.8	2070	6.77	171	0.707	–
H-Y[Aib]QGTFTSD[4Pal]SR[αMeL]LDKK([AEEA-γGlu-C18 diacid])AQ[Aib]AFIEYLLE[Aib]GESSGAPPPSGS-NH2 [Example 132]	25.9	98.66 +/− 0.47%	0.21	72.7	67.2	632	2.63	823	5.72	–
H-Y[Aib]QGT[αMePhe(2-F)]TSDYSKLLDKIAQK([AEEA-γGlu-C20 diacid])AFIEYLIEGGPSSGAPPPSEG-NH2 [Example 339]	28.8	82.36 +/− 3.01**** %	0.101	–	–	1510	6.81	192	1.06	–
H-Y[Aib]QGT[αMePhe(2-F)]TSD[4Pal][αMeS]I[αMeL]LD[Orn]K([AEEA-AEEA-γGlu-C18 diacid])AQ[Aib][Orn]FI[dE][αMeY]LIEGGPSSGEPPPSEG-NH2 [Example 490]	0.861	–	–	–	–	262	–	9.8	–	Body weight (%) ([2]; 10 nmol/kg SC QD, 9 days): 80.75 ± 3.23 %; EC50 (hGIPR [3]; [11]): 0.0159 nM; EC50 (hGcgR; [12]): 3.05 nM; EC50 (hGLP-1R [5]; [13]): 0.183 nM
